According to patent US11446265B2, “Reagents, compositions and methods for improving viability and function of cells, tissues and organs” (TARGA BIOMEDICAL, priority 2016, dated 2022):

Tests used:
[1] = tested on: H9c2 cardiomyoblasts; test: H9c2 viability after oxidative challenge, direct treatment with Celastrol combinations; assay type: cell-based, rat; conditions: 1-hour treatment combined with Celastrol; 1 mM H2O2 for 1 hour
[2] = tested on: human mesenchymal stem cells (hMSC); test: mRNA expression in hMSC by real-time PCR; assay type: cell-based; conditions: FIGS. 25A, 25B, 26A to 26D
From the text: FIG. 25A is a table representing mRNA expression of selected genes measured by real-time PCR in human mesenchymal stem cells (hMSC) conditioned with Celastrol alone or in combination with selected adjunct agents. Results are expressed as fold change versus Vehicle-treated cells.
FIG. 25B is a table representing mRNA expression of selected genes measured by real-time PCR in human mesenchymal stem cells (hMSC) conditioned with selected Celastrol analogs alone or in combination with selected adjunct agents. Results are expressed as fold change versus Vehicle-treated cells.
Results are expressed as fold change versus Vehicle-treated cells. (Arbitrary angiogenic index: (VEGFa+FGF2+SDF1)*2) (A=Additive effect; S=Synergistic effect).
To test the second main condition, MSCs were treated with the candidate pharmaco-optimizers for 1 hour, followed by 3 hours washout period. Cell mRNA was extracted and expression of genes of interest was quantified by real time PCR. In additional MSC cultures, cells were treated for one hour, washed and cultured in low serum media for 24 hours. The media containing paracrine factors secreted by MSCs was then placed in contact with H9c2 cardiomyoblast cell line. H9c2 cells were then submitted to the hypoxia/serum starvation (<1% O2 in hypoxia chamber in low serum media for 48 hours) or oxidative stress (incubation in media for 1 hour spiked with 0-1 mM H2O2). Viability status of H9c2 cells was evaluated using the LIVE/DEAD assay as detailed above.

[3] = tested on: human mesenchymal stem cells (hMSCs); test: VEGFa protein secreted by hMSC into culture medium; assay type: cell-based; conditions: 1-hour treatment combined with Celastrol
[4] = tested on: H9c2 cardiomyoblasts; test: HO-1 and VEGFa mRNA in H9c2 cardiomyoblasts by real-time PCR; assay type: cell-based, rat; conditions: H9c2, 1-hour with Celastrol plus adjunct, 3 hour washout in normoxic or hypoxic condition
From the text: Results are expressed as fold change versus Vehicle-treated h9c2.

[5] = tested on: H9c2 cardiomyoblasts; test: H9c2 viability under hypoxia/serum starvation (LIVE/DEAD); assay type: cell-based, rat; conditions: 1 uM
Description: For survival to hypoxic challenge and oxidative challenge, H9c2 cardiomyoblasts are submitted to the hypoxia/serum starvation (<1% O2 in hypoxia chamber in low serum media for 48 hours) or oxidative stress (incubation in media for 1 hour spiked with 0-1 mM H2O2). Viability status of H9c2 cells was evaluated using the LIVE/DEAD assay.

[6] = tested on: H9c2 cardiomyoblasts; test: H9c2 viability under hypoxia/reoxygenation stress; assay type: cell-based, rat; conditions: 1 uM
Description: Next, the hypoxia/reoxygenation challenge is performed. Briefly, viability analysis was performed in rat H9c2 cardiomyoblasts as previously reported. For hypoxia/reoxygenation stress, cells were cultured in DMEM no glucose (Life Technologies), serum starved and placed in hypoxic conditions (<1% O2) for 18 h. At reoxygenation (normoxic conditions), cells were treated with Celastrol (10^−10 to 10^−6 mol/L, Cayman Chemical, Ann Arbor, Mich.), Celastrol analogs or vehicle (Dimethyl sulfoxide (DMSO), Sigma-Aldrich Canada, Oakville, ON; final concentration<1% v/v) in DMEM high glucose 1% FBS for 1 h, then reoxygenation was continued in DMEM high glucose for an additional 5 h.

[7] = tested on: heat shock response (HSR); test: Heat shock response luciferase reporter assay in H9c2; assay type: cell-based, rat; conditions: H9c2, 10E-5 to 10E-10M, 4 hours, 3 hours washout
Description: (§1) H9c2 rat cardiomyoblasts were seeded at a density of 5,000 cells per well in 96 well plates in DMEM 10% FBS complete medium and transfected using lipofectamine with the Cignal Reporter Assay Heat shock response and Antioxidant response kits (SABiosciences, Qiagen) according to the manufacturers' protocol.

[8] = tested on: antioxidant responsive elements (ARE); test: Antioxidant response luciferase reporter assay in H9c2; assay type: cell-based, rat; conditions: H9c2, 10E-5 to 10E-10M, 4 hours, 3 hours washout
Description: as §1

Compound	ranking as adjunct agent in combination with Celastrol or Celastrol analogs (gene expression) [2]	protection of H9c2 cardiomyoblasts from hypoxia [5]	protection of H9c2 cardiomyoblasts from hypoxia/reoxygenation stress [6]	stimulation of reporter gene controlled by heat shock responsive elements (HSR) [7]	stimulation of reporter gene controlled by antioxidant responsive elements (ARE) [8]	also measured
O=C(C=Cc1ccccc1O)C=Cc1ccccc1O [Analog 2HBA, Bis(2-hydroxybenzylidene)acetone]	among top adjunct agents	–	–	–	–	viability of H9c2 cells following oxidative challenge [1]: synergistic increase in viability; VEGF protein after 48 hours in hypoxic condition ([3]; hypoxic, compared with normal culture): even greater expression of VEGF protein; VEGF protein after 48 hours in normal culture ([3]; normoxic): additive to synergistic increase in VEGF protein; mRNA expression of HO-1 [4]: increased mRNA expression; mRNA expression of VEGFa [4]: increased mRNA expression
Cc1c(O)c(O)cc2c1[C@H](C[N+](=O)[O-])C=C1[C@@]2(C)CC[C@@]2(C)[C@@H]3C[C@](C)(C(=O)O)CC[C@]3(C)CC[C@]12C [Analog 2]	–	effective	effective	–	–	–
CC1=C(O)C(=O)C=C2C1=CC=C1[C@@]2(C)CC[C@@]2(C)[C@@H]3C[C@](C)(C(=O)NCCO)CC[C@]3(C)CC[C@]12C [Analog 3]	–	effective	effective	among the most potent and efficient compounds tested	among the most potent and efficient compounds tested	ranking as HSP90 inhibitor from expression of HSPs, growth factors, antioxidant proteins/enzymes, cytokines, matrix remodeling proteins [2]: best HSP90 inhibitors
CC1=C(O)C(=O)C=C2C1=CC=C1[C@@]2(C)CC[C@@]2(C)[C@@H]3C[C@](C)(C(=O)NO)CC[C@]3(C)CC[C@]12C [Analog 4]	–	effective	effective	among the most potent and efficient compounds tested	among the most potent and efficient compounds tested	–
CC(C)c1cc2c(c(O)c1O)[C@@]13CCCC(C)(C)[C@@H]1C[C@@H]2OC3=O [Carnosol]	among top adjunct agents	–	–	–	–	–
